Here are results for seven compounds from US20260240163A1, “HERBICIDAL COMBINATIONS AND A METHOD FOR CONTROLLING UNDESIRED VEGETATION” (UPL Mauritius Limited, priority 2022, published 2026).

The structures appear in SMILES notation.

The assay has as its system Euphorbia heterophylla. Nature of the assay: Post-emergence herbicidal efficacy trials; expected efficacy by Colby method. Type of assay: in vivo. Conditions: for Observed efficacy (%) of L-glufosinate ammonium (150 g a.i./ha): Table 11. As to the method: Methodology: Trials were conducted to evaluate the efficacy of the combinations comprising L-glufosinate ammonium and the additional herbicides on Euphorbia genus weeds.
The soil used was sandy clay loam-sand: 68.0%; silt: 8.0%; clay: 24.0%.
All treatments were in 4 replications per treatment with a spray volume of about 150 L/ha.
Efficacy Evaluation: The expected efficacy of the combination comprising L-glufosinate ammonium and additional herbicides was calculated using the well-established Colby method.
In the Colby method, the expected (or predicted) response of a combination of herbicides is calculated by taking the product of the observed response for each individual component of the combination when applied alone, divided by 100, and subtracting this value from the sum of the observed response for each component when applied alone. An unexpected enhancement in efficacy of the combination is then determined by comparing the observed response of the combination to the expected (or predicted) response as calculated from the observed response of each individual component alone. If the observed response of the combination is greater than the expected (or predicted) response, or stated conversely, if the difference between the observed and expected response is greater than zero, then the combination is said to be synergistic or unexpectedly effective (Colby, S. R., Weeds, 1967 (15), p. 20-22). The Colby method requires only a single dose of each herbicide applied alone and the mixture of both doses. The formula used to calculate the expected efficacy (EE) which was compared with the observed efficacy (OE) to determine the efficacy of the present disclosure is explained hereinbelow:
The expected efficacy for a combination of two active ingredients is as follows:
wherein, • A=Observed efficacy of active ingredient A at the same concentration as used in the mixture. • B=Observed efficacy of the active ingredient B at the same concentration as used in the mixture.

As for `C[N+](C)(C)CCO.O=C([O-])COc1ccc(Cl)cc1Cl` [2,4-D choline, 2,4-dichlorophenoxyacetic acid (2,4-D) choline], the “Observed efficacy (%) of 2,4-D choline (228 g a.i./ha)” value reads like this: (14 DAA) 30%; (21 DAA) 30%.

`COc1c(Cl)ccc(Cl)c1C(=O)O` [Dicamba]: the “Observed efficacy (%) of Dicamba (228 g a.i./ha)” value runs as follows: (7 DAA) 45%; (14 DAA) 40%.

For `COc1c(Cl)ccc(-c2nc(C(=O)OCc3ccccc3)c(Cl)c(N)c2F)c1F` [Florpyrauxifen-benzyl], the “Observed efficacy (%) of Florpyrauxifen-benzyl (15 g a.i./ha)” value amounted to 65% (7 DAA) and 90% (14 DAA).

Consider `CP(=O)(O)CC[C@H](N)C(=O)O.N` [L-glufosinate ammonium], for which the “Observed efficacy (%) of L-glufosinate ammonium (Glufosinate-P-ammonium) (150 g a.i./ha)” value amounted to 95% (7 DAA, Table 6); 95% (7 DAA, Table 7); 95% (7 DAA, Table 8); 95% (7 DAA, Table 9); 95% (7 DAA, Table 10); 98% (14 DAA, Table 6). Moreover, the “Observed efficacy (%) of L-glufosinate ammonium (Glufosinate-P-ammonium) (150 g a.i./ha)” value runs as follows: (14 DAA, Table 7) 98%; (14 DAA, Table 9) 93.5%; (14 DAA, Table 10) 93.5%; (21 DAA, Table 9) 88.8%; (21 DAA, Table 10) 88.8%; (28 DAA, Table 9) 93.1%. In addition, the “Observed efficacy (%) of L-glufosinate ammonium (Glufosinate-P-ammonium) (150 g a.i./ha)” value (28 DAA, Table 10) is reported as 93.1%. Further, the “Observed efficacy (%) of L-glufosinate ammonium (150 g a.i./ha)” value by setting is: (14 DAA) 98%; (21 DAA) 98%.

For the compound `CSc1nnc(C(C)(C)C)c(=O)n1N` [Metribuzin], the “Observed efficacy (%) of Metribuzin (360 g a.i./ha)” value was 41.9% (7 DAA), 38.1% (14 DAA), 29.4% (21 DAA) and 12.5% (28 DAA).

`CCN(CC)C(=O)C(C)Oc1cccc2ccccc12` (stereo not drawn) [Napropamide]: the “Observed efficacy (%) of Napropamide (675 g a.i./ha)” value (“Observed efficacy (%) of Napropamide” below) (7 DAA) was 20%, the “Observed efficacy (%) of Napropamide” value (14 DAA) was 10%, the “Observed efficacy (%) of Napropamide” value (21 DAA) is given as 0% and the “Observed efficacy (%) of Napropamide” value (28 DAA) turned out to be 0%.

Consider `CCOc1cc(Oc2ccc(C(F)(F)F)cc2Cl)ccc1[N+](=O)[O-]` [Oxyfluorfen], for which the “Observed efficacy (%) of Oxyfluorfen (430 g a.i./ha)” value (430 g a.i./ha, 7 DAA) stood at 75%.
